# In patent publication US20190367516A1 (Bayer Pharma Aktiengesellschaft, priority 2015, published 2019):
# Read-outs that look alike come from different tables or passages of the source.
# Molecular target: T1, human M2 receptor (Homo sapiens, UniProt P08172)
# T1 sequence (P08172 1-466): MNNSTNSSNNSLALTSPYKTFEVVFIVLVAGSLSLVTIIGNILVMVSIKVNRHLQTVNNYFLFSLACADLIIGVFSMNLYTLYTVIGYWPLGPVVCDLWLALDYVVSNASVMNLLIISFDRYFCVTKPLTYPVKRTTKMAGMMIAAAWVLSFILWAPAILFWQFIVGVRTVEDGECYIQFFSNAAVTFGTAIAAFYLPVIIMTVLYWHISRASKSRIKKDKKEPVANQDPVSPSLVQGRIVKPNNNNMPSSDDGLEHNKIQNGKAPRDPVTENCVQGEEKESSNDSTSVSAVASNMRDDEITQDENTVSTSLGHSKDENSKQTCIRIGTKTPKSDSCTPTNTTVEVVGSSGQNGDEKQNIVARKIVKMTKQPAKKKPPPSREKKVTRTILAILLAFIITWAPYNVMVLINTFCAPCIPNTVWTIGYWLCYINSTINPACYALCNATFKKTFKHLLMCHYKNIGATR
# Settings: for Emax: read-out: Efficiency, boosting of the acetylcholine effect at EC20 acetylcholine concentration; for Efficiency: boosting of the acetylcholine effect at EC20 acetylcholine concentration
# [1] = Receptor activity EC50, allosteric potency at EC20 acetylcholine, M2-GIRK1/4 reporter cells, in some cases mean of two or more determinations
# [2] = Receptor activity EC50, M2-GIRK1/4 activation test, acetylcholine at EC20, allosteric potency, in some cases mean values from two or more determinations
SMILES,EC50 [1] [nM],Emax (M2-GIRK1/4 reporter cells) [%],EC50 [2] [nM],further results
"O=C(N[C@@H](C1CC1)C(F)(F)F)c1cn(-c2c(F)cc(F)cc2F)c2nc(N3CC[C@@H](O)C3=O)ccc2c1=O [Example 466, N-[(1 S)-1-Cyclopropyl-2,2,2-trifluoroethyl]-7-[(3R)-3-hydroxy-2-oxopyrrolidin-1-yl]-4-oxo-1-(2,4,6-trifluorophenyl)-1,4-dihydro-1,8-naphthyridine-3-carboxamide]",26,100,,
CC(C)CC(NC(=O)c1cn(-c2ccc(F)cc2F)c2nc(NCCF)ccc2c1=O)C(F)(F)F (stereo not drawn) [Example 88],,,42,
"CN(C)c1ccc2c(=O)c(C(=O)NCc3ccc(F)cc3F)cn(-c3ccc(F)cc3F)c2n1 [Example 50, N-(2,4-Dmuorobenzyl)-1-(2,4-difluorophenyl)-7-(dimethylamino)-4-oxo-1,4-dihydro-1,8-naphthyridine-3-carboxamide]",,,158,
"CC(C)(C)[C@@H](NC(=O)c1cn(-c2c(F)cc(F)cc2F)c2nc(N3CCN(CCO)C3=O)ccc2c1=O)C(F)(F)F [Example 361, 7-[3-(2-Hydroxyethyl)-2-oxoimidazolidin-1-yl]-4-oxo-N-[(2R)-1,1,1-trifluoro-3,3-dimethylbutan-2-yl]-1-(2,4,6-trifluorophenyl)-1,4-dihydro-1,8-naphthyridine-3-carboxamide]",,,17,
"O=C(N[C@@H](C1CC1)C(F)(F)F)c1cn(-c2c(F)cc(F)cc2F)c2nc(N3CCOC(CO)C3)ccc2c1=O (mixture of isomers) [Example 463, N-[(1 S)-1-Cyclopropyl-2,2,2-trifluoroethyl]-7-[2-(hydroxymethyl)morpholin-4-yl]-4-oxo-1-(2,4,6-trifluorophenyl)-1,4-dihydro-1,8-naphthyridine-3-carboxamide]",54,89,,
"CC[C@@H](NC(=O)c1cn(-c2ccc(F)cc2F)c2nc(N3CC(C)NC3=O)ccc2c1=O)C(F)(F)F (single isomer, unassigned) [Example 433]",170,,,Efficiency (M2-GIRK1/4 reporter cells): 100.0%
"CC(C)CC(NC(=O)c1cn(-c2ccc(F)cc2F)c2nc(NCC(F)F)ccc2c1=O)C(F)(F)F (racemic) [Example 125, rac-7-[(2,2-Difluoroethyl)amino]-1-(2,4-difluorophenyl)-4-oxo-N-[1,1,1-trifluoro-4-methylpentan-2-yl]-1,4-dihydro-1,8-naphthyridine-3-carboxamide]",,,116,
"O=C(NC(c1ccccc1Cl)C(F)(F)F)c1cn(-c2c(F)cc(F)cc2F)c2nc(N3C[C@@H](O)CC3=O)ccc2c1=O (single isomer, unassigned) [Example 533]",24,100,,
"O=C(NC12CC(C1)C2)c1cn(-c2c(F)cc(F)cc2F)c2nc(N3CC(O)C4(CC4)C3)ccc2c1=O (racemic) [Example 628, N-(Bicyclo[1.1.1]pent-1-yl)-7-[7-hydroxy-5-azaspiro[2.4]hept-5-yl]-4-oxo-1-(2,4,6-trifluorophenyl)-1,4-dihydro-1,8-naphthyridine-3-carboxamide]",,,,Efficiency (M2-GIRK1/4 reporter cells): 89.5%
"O=C(N[C@@H](C1CC1)C(F)(F)F)c1cn(-c2c(F)cc(F)cc2Cl)c2nc(N3C[C@@H](O)[C@H](O)C3)ccc2c1=O (single isomer, unassigned) [Example 547]",120,90,,
"O=C(Nc1c(Cl)cccc1Cl)c1cn(-c2ccc(F)cc2F)c2nc(N3C[C@@H](O)[C@@H](O)C3)ccc2c1=O [Example 651, N-(2,6-Dichlorophenyl)-1-(2,4-difluorophenyl)-7-[(3R,4S)-3,4-dihydroxypyrrolidin-1-yl]-4-oxo-1,4-dihydro-1,8-naphthyridine-3-carboxamide]",86,95,,
"CC[C@@H](NC(=O)c1cn(-c2ccc(F)cc2F)c2nc(N3CC(O)C4(CC4)C3)ccc2c1=O)C(F)(F)F (stereo partly drawn) [Example 355, 1-(2,4-Difluorophenyl)-7-[7-hydroxy-5-azaspiro[2.4]hept-5-yl]-4-oxo-N-[(2R)-1,1,1-trifluorobutan-2-yl]-1,4-dihydro-1,8-naphthyridine-3-carboxamide]",,,85,
"CC[C@@H](NC(=O)c1cn(-c2c(F)cccc2F)c2nc(N3CCC(O)C3=O)ccc2c1=O)C(F)(F)F (mixture of isomers) [Example 292, 1-(2,6-Difluorophenyl)-7-[3-hydroxy-2-oxopyrrolidin-1-yl]-4-oxo-N-[(2R)-1,1,1-trifluorobutan-2-yl]-1,4-dihydro-1,8-naphthyridine-3-carboxamide]",,,59,
"CC[C@@H](NC(=O)c1cn(-c2ccccc2C(F)(F)F)c2nc(N3C[C@@H](O)CC3=O)ccc2c1=O)C(F)(F)F (single isomer, unassigned) [Example 270]",,,1600,
"O=C(NC12CC3CC(CC(C3)C1)C2)c1cn(-c2ccc(F)cc2F)c2nc(N3CC[C@H](F)C3)ccc2c1=O [Example 61, 1-(2,4-Difluorophenyl)-7-[(3S)-3-fluoropyrrolidin-1-yl]-4-oxo-N-(tricyclo[3.3.1.1^3,7]dec-1-yl)-1,4-dihydro-1,8-naphthyridine-3-carboxamide]",,,16,
"CCCC(NC(=O)c1cn(-c2ccc(F)cc2F)c2nc(N(C)C)ccc2c1=O)C(F)(F)F (racemic) [Example 144, rac-1-(2,4-Difluorophenyl)-7-(dimethylamino)-4-oxo-N-(1,1,1-trifluoropentan-2-yl)-1,4-dihydro-1,8-naphthyridine-3-carboxamide]",,,32,
"CC[C@H](NC(=O)c1cn(-c2c(F)cc(F)cc2F)c2nc(N3CCNC3=O)ccc2c1=O)C(F)(F)F [Example 343, 4-Oxo-7-(2-oxoimidazolidin-1-yl)-N-[(2S)-1,1,1-trifluorobutan-2-yl]-1-(2,4,6-trifluorophenyl)-1,4-dihydro-1,8-naphthyridine-3-carboxamide]",,,25,
O=C(NC12CC3CC(CC(C3)C1)C2)c1cn(-c2ccc(F)cc2F)c2nc(N3C[C@@H](O)CC3=O)ccc2c1=O [Example 170],,,19,
"CC1(NC(=O)c2cn(-c3c(F)cc(F)cc3F)c3nc(N4C[C@@H](O)[C@H](O)C4)ccc3c2=O)CC(F)(F)C1 [Example 655, N-(3,3-Difluoro-1-methylcyclobutyl)-7-[(3R,4R)-3,4-dihydroxypyrrolidin-1-yl]-4-oxo-1-(2,4,6-trifluorophenyl)-1,4-dihydro-1,8-naphthyridine-3-carboxamide]",97,98,,
"C[C@@H](O)CNc1ccc2c(=O)c(C(=O)N[C@@H](C3CC3)C(F)(F)F)cn(-c3c(F)cc(F)cc3F)c2n1 [Example 378, N-[(1S)-1-Cyclopropyl-2,2,2-trifluoroethyl]-7-{[(2R)-2-hydroxypropyl]amino}-4-oxo-1-(2,4,6-trifluorophenyl)-1,4-dihydro-1,8-naphthyridine-3-carboxamide]",,,81,
"CC(C)(CC(F)(F)F)NC(=O)c1cn(-c2c(F)cc(F)cc2F)c2nc(N3CCNC3=O)ccc2c1=O [Example 376, 4-Oxo-7-(2-oxoimidazolidin-11-yl)-N-(4,4,4-trifluoro-2-methylbutan-2-yl)-1-(2,4,6-trifluorophenyl)-1,4-dihydro-1,8-naphthyridine-3-carboxamide]",,,16,
"CC(NC(=O)c1cn(-c2ccc(F)cc2F)c2nc(N3C[C@@H](O)CC3=O)ccc2c1=O)C(F)(F)C(F)(F)F (single isomer, unassigned) [Example 623]",67,97,,
"CC[C@H](NC(=O)c1cn(-c2c(F)cc(F)cc2Cl)c2nc(N3C[C@@H](O)[C@H](O)C3)ccc2c1=O)C(F)(F)F (single isomer, unassigned) [Example 568]",11,,,Efficiency (M2-GIRK1/4 reporter cells): 100.0%
"O=C(N[C@@H](C1CC1)C(F)(F)F)c1cn(-c2c(F)cc(F)cc2F)c2nc(N3CC(CO)(CO)C3)ccc2c1=O [Example 502, 7-[3,3-Bis(hydroxymethyl)azetidin-1-yl]-N-[(1S)-1-cyclopropyl-2,2,2-trifluoroethyl]-4-oxo-1-(2,4,6-trifluorophenyl)-1,4-dihydro-1,8-naphthyridine-3-carboxamide]",30,91,,
"CC(NC(=O)c1cn(-c2ccc(F)cc2F)c2nc(N3C[C@@H](O)CC3=O)ccc2c1=O)c1c(F)cccc1F (single isomer, unassigned) [Example 215]",,,178,
"CC(C)[C@@H](C)NC(=O)c1cn(-c2c(F)cc(F)cc2F)c2nc(N3C[C@@H](O)CC3=O)ccc2c1=O [Example 473, 7-[(4S)-4-Hydroxy-2-oxopyrrolidin-1-yl]-N-[(2R)-3-methylbutan-2-yl]-4-oxo-1-(2,4,6-trifluorophenyl)-1,4-dihydro-1,8-naphthyridine-3-carboxamide]",31,100,,
"CC[C@@H](NC(=O)c1cn(-c2ccc(F)cc2F)c2nc(N3CCC4CC4(O)C3)ccc2c1=O)C(F)(F)F (stereo partly drawn) [Example 354, 1-(2,4-Difluorophenyl)-7-[1-hydroxy-3-azabicyclo[4.1.0]hept-3-yl]-4-oxo-N-[(2R)-1,1,1-trifluorobutan-2-yl]-1,4-dihydro-1,8-naphthyridine-3-carboxamide]",,,38,
"CC(NC(=O)c1cn(-c2ccc(F)cc2F)c2nc(N(C)CC(F)F)ccc2c1=O)C(F)(F)F (racemic) [Example 113, rac-7-[(2,2-Difluoroethyl)(methyl)amino]-1-(2,4-difluorophenyl)-4-oxo-N-[1,1,1-trifluoropropan-2-yl]-1,4-dihydro-1,8-naphthyridine-3-carboxamide]",,,141,
